How the values were obtained:
[1] = molecular target: D(2) dopamine receptor (Homo sapiens) (UniProt P14416); settings: Compound concentration 10.0 uM
[2] = molecular target: GABA-A receptor; anion channel (Rattus norvegicus) (UniProt O09028+P15431+P18506+P18508+P19969+P20236+P23574+P23576+P28471+P28473+P30191+P62813+P63079+P63138+Q91ZM7+Q9ES14); assay: Inhibition of GABAA, Muscimol, Central at 10 µM in the Eurofins-Panlabs radioligand binding assay (Eurofins_assay_226500); type: protein-complex assay; settings: Compound concentration 10.0 uM
[3] = molecular target: Glutamate receptor ionotropic, kainate (Rattus norvegicus) (UniProt P22756+Q01812+P42260+P42264+Q63273); assay: Inhibition of Glutamate, Kainate at 10 µM in the Eurofins-Panlabs radioligand binding assay (Eurofins_assay_232700); settings: Compound concentration 10.0 uM
[4] = species: Rattus norvegicus; assay: Inhibition of Glutamate, NMDA, Phencyclidine at 10 µM in the Eurofins-Panlabs radioligand binding assay (Eurofins_assay_233000); type: protein-complex assay; settings: Compound concentration 10.0 uM
[5] = species: Rattus norvegicus; assay: Inhibition of Imidazoline I2, Central at 10 µM in the Eurofins-Panlabs radioligand binding assay (Eurofins_assay_241000); design: ligand concentration 2 nM; settings: Compound concentration 10.0 uM
[6] = system: Bacteria; assay: Inhibition of Beta-Lactamase at 10 µM in the Eurofins-Panlabs enzyme assay (Eurofins_assay_126000); type: protein-complex assay; design: substrate with concentration; settings: Compound concentration 10.0 uM
[7] = molecular target: CYP1A2 (Homo sapiens, UniProt P05177); assay: CYP450, 1A2 Eurofins-Panlabs enzyme assay; settings: compound concentration 10 uM
[8] = molecular target: Neutrophil elastase (Homo sapiens) (UniProt P08246); assay: Inhibition of Peptidase, ELA2 (Neutrophil Elastase 2) at 10 µM in the Eurofins-Panlabs enzyme assay (Eurofins_assay_166010); settings: Compound concentration 10.0 uM
[9] = molecular target: Mitogen-activated protein kinase 1 (Homo sapiens) (UniProt P28482); assay: Inhibition of Protein Serine/Threonine Kinase, MAPK1 (ERK2) at 10 µM in the Eurofins-Panlabs enzyme assay (Eurofins_assay_171120); design: substrate with concentration; settings: Compound concentration 10.0 uM
[10] = molecular target: Protein phosphatase 3 catalytic subunit alpha (Homo sapiens) (UniProt Q08209); assay: Inhibition of Protein Serine/threonine Phosphatase, PPP3CA (Calcineurin, PP2B) […] in the Eurofins-Panlabs enzyme assay (Eurofins_assay_188020); design: substrate with concentration; settings: Compound concentration 10.0 uM
[11] = molecular target: Thromboxane-A synthase (Homo sapiens) (UniProt P24557); assay: Inhibition of Thromboxane Synthase at compound concentration of 10.0 uM in the Eurofins-Panlabs enzyme assay (Eurofins_assay_194020); design: substrate with concentration; settings: Compound concentration 10.0 uM
[12] = molecular target: C-C chemokine receptor type 2 (Homo sapiens) (UniProt P41597); assay: Inhibition of Chemokine CCR2B at 10 µM in the Eurofins-Panlabs radioligand binding assay (Eurofins_assay_217550); settings: Compound concentration 10.0 uM
[13] = molecular target: T1, Muscarinic acetylcholine receptor M5 (Homo sapiens) (UniProt P08912); assay: Inhibition of Muscarinic M5 at 10 µM in the Eurofins-Panlabs radioligand binding assay (Eurofins_assay_253010); design: ligand concentration 0.8 nM; settings: Compound concentration 10.0 uM
T1 sequence (whole entry): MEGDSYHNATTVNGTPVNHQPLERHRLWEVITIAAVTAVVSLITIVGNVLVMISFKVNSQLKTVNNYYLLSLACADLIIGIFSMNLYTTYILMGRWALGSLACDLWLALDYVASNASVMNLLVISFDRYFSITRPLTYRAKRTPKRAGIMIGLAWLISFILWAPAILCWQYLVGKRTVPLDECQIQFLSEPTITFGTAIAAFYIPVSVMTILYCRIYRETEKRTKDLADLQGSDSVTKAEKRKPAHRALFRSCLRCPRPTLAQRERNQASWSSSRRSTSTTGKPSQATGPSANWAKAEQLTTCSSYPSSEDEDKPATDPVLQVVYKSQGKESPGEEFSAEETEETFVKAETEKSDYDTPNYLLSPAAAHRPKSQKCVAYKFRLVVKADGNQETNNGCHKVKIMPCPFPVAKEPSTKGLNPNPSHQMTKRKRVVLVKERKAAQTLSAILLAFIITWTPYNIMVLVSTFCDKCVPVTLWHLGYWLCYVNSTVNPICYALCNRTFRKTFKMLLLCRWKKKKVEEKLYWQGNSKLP

[14] = Inhibition of Platelet-Derived Growth Factor (PDGF) at 10 µM in the Eurofins-Panlabs radioligand binding assay (Eurofins_assay_265200); settings: Compound concentration 10 uM; Detection method Radioligand Binding; Incubation temperature 25 °C; Incubation time 45 min; Ligand [3H]PDGF; Ligand concentration 0.02 nM; Non-specific ligand with concentration 10 nM PDGF; Source of protein Swiss mouse 3T3 embryo cells
[15] = molecular target: Adenosine Transporter (Cavia porcellus) (UniProt H0V4R7+H0UUG1+H0V3Z5); assay: Inhibition of Transporter, Adenosine at compound concentration of 10.0 uM in the Eurofins-Panlabs radioligand binding assay (Eurofins_assay_202000); type: protein assay; design: ligand concentration 0.5 nM, non-specific ligand with concentration 5 uM Nitrobenzylthioinosine, incubation time 30 min, incubation temperature 25 C; settings: Compound concentration 10.0 uM
[16] = species: Rattus norvegicus; settings: Compound concentration 10.0 uM
[17] = molecular target: Adenosine receptor A1 (Homo sapiens) (UniProt P30542); settings: Compound concentration 10.0 uM
[18] = molecular target: T2, Muscarinic acetylcholine receptor M2 (Homo sapiens) (UniProt P08172); settings: Compound concentration 10.0 uM
T2 sequence (whole entry): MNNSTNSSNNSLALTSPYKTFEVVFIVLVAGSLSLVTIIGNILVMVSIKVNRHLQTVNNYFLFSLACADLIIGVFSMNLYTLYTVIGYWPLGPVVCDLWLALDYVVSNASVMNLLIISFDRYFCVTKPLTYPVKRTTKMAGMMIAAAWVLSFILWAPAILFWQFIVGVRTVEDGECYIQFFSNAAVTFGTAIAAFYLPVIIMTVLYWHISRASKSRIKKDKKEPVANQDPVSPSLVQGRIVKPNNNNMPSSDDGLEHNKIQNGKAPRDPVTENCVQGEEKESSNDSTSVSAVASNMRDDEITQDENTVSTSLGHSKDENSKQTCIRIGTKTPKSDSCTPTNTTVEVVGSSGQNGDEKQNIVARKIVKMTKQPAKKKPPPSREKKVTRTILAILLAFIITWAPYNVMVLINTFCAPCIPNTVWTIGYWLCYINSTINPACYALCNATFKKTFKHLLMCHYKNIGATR

[19] = molecular target: Muscarinic acetylcholine receptor M3 (Homo sapiens) (UniProt P20309); settings: Compound concentration 10.0 uM
[20] = molecular target: Beta-3 adrenergic receptor (Homo sapiens) (UniProt P13945); settings: Compound concentration 10.0 uM
[21] = molecular target: Muscarinic acetylcholine receptor M4 (Homo sapiens) (UniProt P08173); settings: Compound concentration 10.0 uM
Chain of Muscarinic acetylcholine receptor M4 (Homo sapiens) (P08173 whole entry): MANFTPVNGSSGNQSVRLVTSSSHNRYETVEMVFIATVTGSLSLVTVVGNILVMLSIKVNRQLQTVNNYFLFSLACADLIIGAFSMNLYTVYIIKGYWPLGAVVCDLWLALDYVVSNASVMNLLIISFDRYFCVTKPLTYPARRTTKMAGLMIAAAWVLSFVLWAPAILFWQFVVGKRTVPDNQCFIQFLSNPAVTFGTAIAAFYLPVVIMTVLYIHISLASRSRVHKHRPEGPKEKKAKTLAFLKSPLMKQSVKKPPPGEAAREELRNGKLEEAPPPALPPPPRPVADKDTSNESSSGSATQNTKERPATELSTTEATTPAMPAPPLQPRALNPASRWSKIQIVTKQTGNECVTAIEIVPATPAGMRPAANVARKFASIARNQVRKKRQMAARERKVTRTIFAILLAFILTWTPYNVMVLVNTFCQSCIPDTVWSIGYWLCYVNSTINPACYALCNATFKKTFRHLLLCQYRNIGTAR

Chain of Muscarinic acetylcholine receptor M3 (Homo sapiens) (P20309 whole entry, looked up): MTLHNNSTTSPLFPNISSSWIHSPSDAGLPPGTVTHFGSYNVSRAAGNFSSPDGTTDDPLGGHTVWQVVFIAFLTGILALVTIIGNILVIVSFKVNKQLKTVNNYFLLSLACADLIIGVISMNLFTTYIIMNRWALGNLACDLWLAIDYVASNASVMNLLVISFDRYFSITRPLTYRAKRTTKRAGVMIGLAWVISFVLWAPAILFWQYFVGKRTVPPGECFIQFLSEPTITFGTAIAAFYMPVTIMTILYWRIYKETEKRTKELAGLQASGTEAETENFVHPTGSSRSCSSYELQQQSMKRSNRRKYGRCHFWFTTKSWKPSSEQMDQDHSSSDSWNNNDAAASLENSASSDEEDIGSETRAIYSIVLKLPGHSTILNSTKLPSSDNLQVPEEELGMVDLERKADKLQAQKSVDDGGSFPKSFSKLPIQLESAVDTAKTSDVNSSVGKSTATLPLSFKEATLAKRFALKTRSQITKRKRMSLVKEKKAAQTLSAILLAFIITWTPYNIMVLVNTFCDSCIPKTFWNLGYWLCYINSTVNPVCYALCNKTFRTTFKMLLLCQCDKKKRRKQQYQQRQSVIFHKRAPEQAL
Chain of C-C chemokine receptor type 2 (Homo sapiens) (P41597 whole entry, looked up): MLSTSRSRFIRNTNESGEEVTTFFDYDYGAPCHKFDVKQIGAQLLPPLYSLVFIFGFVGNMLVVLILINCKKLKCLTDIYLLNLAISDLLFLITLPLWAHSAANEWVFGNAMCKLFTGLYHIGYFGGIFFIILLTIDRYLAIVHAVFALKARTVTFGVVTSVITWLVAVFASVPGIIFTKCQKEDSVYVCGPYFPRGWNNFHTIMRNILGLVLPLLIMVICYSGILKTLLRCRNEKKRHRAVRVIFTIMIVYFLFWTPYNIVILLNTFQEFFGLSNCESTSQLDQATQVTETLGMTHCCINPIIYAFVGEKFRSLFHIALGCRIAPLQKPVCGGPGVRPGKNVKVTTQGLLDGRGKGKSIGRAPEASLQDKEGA
Chain of Beta-3 adrenergic receptor (Homo sapiens) (P13945 whole entry, looked up): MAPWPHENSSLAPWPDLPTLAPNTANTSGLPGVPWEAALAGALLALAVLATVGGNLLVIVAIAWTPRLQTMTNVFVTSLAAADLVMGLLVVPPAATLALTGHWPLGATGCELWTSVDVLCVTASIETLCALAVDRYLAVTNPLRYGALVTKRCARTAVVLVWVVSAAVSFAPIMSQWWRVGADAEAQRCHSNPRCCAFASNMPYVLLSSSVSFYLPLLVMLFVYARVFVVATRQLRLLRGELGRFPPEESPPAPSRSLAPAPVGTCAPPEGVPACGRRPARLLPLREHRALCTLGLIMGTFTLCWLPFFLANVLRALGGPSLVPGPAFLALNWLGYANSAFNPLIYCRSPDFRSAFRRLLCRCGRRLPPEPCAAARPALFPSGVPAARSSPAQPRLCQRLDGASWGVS
Chain of Thromboxane-A synthase (Homo sapiens) (P24557 whole entry): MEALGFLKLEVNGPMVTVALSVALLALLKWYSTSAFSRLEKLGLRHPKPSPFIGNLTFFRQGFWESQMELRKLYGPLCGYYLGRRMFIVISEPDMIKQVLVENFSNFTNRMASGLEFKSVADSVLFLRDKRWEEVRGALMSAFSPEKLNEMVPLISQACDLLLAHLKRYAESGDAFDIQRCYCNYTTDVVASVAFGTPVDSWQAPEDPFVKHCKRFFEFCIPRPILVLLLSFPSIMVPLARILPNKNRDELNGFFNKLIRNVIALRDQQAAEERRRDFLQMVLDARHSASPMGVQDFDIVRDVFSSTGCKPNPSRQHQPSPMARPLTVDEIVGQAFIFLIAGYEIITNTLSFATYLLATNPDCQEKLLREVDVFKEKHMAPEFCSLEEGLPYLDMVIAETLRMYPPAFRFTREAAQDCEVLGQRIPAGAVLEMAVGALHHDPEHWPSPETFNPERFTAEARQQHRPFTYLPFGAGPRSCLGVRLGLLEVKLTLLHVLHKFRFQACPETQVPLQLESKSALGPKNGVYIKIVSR
Chain of D(2) dopamine receptor (Homo sapiens) (P14416 whole entry): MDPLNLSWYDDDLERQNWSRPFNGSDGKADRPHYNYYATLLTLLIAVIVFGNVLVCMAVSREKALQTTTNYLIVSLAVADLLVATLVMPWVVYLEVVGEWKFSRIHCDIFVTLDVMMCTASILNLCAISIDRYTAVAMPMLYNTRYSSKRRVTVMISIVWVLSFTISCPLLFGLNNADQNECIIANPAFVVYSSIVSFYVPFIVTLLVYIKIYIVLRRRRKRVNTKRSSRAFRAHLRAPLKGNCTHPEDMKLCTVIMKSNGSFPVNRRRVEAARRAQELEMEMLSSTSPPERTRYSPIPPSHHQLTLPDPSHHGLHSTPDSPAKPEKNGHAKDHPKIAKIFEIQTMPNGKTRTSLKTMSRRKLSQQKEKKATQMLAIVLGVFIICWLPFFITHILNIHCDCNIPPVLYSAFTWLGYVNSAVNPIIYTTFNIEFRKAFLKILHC
Chain of Neutrophil elastase (Homo sapiens) (P08246 whole entry): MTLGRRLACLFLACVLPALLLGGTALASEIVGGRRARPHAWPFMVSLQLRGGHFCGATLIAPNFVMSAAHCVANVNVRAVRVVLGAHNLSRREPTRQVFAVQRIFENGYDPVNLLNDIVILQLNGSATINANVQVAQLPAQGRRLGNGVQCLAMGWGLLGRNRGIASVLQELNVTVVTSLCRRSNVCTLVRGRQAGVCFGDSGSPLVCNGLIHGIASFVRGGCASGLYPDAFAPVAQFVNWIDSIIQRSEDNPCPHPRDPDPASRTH
Chain of Adenosine receptor A1 (Homo sapiens) (P30542 whole entry): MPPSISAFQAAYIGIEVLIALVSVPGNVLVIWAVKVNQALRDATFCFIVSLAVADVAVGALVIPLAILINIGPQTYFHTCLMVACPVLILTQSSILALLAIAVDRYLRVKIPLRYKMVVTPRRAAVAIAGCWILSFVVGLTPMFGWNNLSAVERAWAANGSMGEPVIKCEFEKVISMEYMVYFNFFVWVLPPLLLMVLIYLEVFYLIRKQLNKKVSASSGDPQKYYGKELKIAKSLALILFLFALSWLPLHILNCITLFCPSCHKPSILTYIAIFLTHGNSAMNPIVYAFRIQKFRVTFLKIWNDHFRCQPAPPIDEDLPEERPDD
Chain of CYP1A2 (P05177 whole entry): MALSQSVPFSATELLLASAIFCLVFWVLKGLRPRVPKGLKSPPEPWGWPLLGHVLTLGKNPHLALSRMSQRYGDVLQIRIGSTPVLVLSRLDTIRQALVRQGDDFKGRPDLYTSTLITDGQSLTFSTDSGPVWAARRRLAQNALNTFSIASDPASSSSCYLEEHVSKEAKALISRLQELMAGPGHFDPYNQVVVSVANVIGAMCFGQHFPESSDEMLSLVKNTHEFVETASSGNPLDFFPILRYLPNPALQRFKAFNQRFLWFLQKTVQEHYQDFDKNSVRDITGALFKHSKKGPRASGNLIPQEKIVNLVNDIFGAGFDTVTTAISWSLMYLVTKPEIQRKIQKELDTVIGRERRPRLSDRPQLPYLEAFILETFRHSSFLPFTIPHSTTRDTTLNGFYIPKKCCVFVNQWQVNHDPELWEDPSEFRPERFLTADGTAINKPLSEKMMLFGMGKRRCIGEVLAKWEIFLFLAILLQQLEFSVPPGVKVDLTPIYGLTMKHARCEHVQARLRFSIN
Chain of Mitogen-activated protein kinase 1 (Homo sapiens) (P28482 whole entry): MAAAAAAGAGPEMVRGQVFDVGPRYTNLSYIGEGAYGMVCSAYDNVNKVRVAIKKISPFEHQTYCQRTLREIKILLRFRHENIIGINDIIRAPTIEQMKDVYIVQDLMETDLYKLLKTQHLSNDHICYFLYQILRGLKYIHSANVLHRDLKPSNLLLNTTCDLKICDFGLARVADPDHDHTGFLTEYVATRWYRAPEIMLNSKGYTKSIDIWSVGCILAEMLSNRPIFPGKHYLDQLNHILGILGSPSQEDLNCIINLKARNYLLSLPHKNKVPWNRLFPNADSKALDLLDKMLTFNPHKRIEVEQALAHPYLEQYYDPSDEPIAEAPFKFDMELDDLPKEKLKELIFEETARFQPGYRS

SMILES: O=C(NCc1ncc(C(F)(F)F)cc1Cl)c1ccc2c(c1)C1(CCS(=O)(=O)CC1)[C@@H](C1CC1)N2S(=O)(=O)c1ccc(F)cc1 [BAY-786]
- inhibition [1]: -8.4%

SMILES: O=C(NCc1ncc(C(F)(F)F)cc1Cl)c1ccc2c(c1)C1(CCS(=O)(=O)CC1)[C@H](C1CC1)N2S(=O)(=O)c1ccc(F)cc1 [BAY-784]
- inhibition [2]: 7%
- inhibition [3]: 1%
- inhibition [4]: -4%
- inhibition [5]: 10%
- inhibition [6]: 4%
- inhibition at 10 µM [7]: -2% (not active)
- inhibition [8]: 0%
- inhibition [9]: 53%
- inhibition [10]: 16%
- inhibition [11]: 22%
- inhibition [12]: -1%
- inhibition [13]: 0%
- inhibition at 10 µM [14]: -4% (not active)
- inhibition [15]: 25%
- inhibition [16]: 7.97%
- inhibition [17]: 15%
- inhibition [18]: -3%
- inhibition [19]: 1%
- inhibition [20]: 0%
- inhibition [21]: 2%

From ChEMBL document CHEMBL4507266, “Data for DCP probe BAY-784” (2021)
